Measurements reported in patent US12258360B2, “Compositions and methods for treatment of anticancer-drug resistant cancers” (THE GEORGE WASHINGTON UNIVERSITY, priority 2020, dated 2025).
Values joined by “and” are separate entries in the source; they are usually repeats but may differ in a detail not shown here. Equal entries are not always repeated.

What was measured:
SREBP target gene SCD-1 = assay: RT-PCR detection of SCD-1 gene expression in AN3CA cells; assay type: cell-based, human; conditions: 10 μM; for Relative mRNA expression of SCD-1: AN3CA cells, 48 h, DMSO = 1
Protocol: • 1. Experimental reagent • 2. The experimental steps are as follows: • 2.1 AN3CA cell recovery and culture (10% serum 1% double antibody in MEM medium); • 2.2 passages (passage at a ratio of 1:2); • 2.3 Place 6 well plates when the cell status is good, 5×10^5Well, culture overnight; • 2.4 adding medicine: diluting the final concentration of the drug with a culture medium to 10 μM, 2 mL/well; • 2.5 adding medicine for 48 h, and then extracting RNA; • 2.5.1 removing the culture medium, adding 0.5 mL/hole Trizol to lyse the cells, repeatedly blowing and beating the cells by a pipette after 5 min, completely lysing the cells, transferring the cells into a 1.5 mL EP tube without RNase, and standing the tube for 5 min; • 2.5.2 adding 200 µl chloroform, shaking rapidly, mixing, standing for 10 min 12000 rpm/15 min; • 2.5.3 carefully taking out the supernatant, transferring the supernatant into an EP tube, adding isopropanol with the same volume, reversing, uniformly mixing, standing for 10 min, and centrifuging at 12000 rpm/10 min; • 2.5.4 removing the supernatant, adding 1 mL of 75% ethanol for washing, centrifuging at 8000 rpm/5 min once, carefully removing the supernatant, standing at room temperature for 10 min to volatilize the ethanol, and dissolving the precipitate with 40 μL of DEPC treated water when the precipitate becomes transparent; • 2.5.5 RNA concentration was measured and DEPC-treated water was diluted to 100 ng/μL • 2.6 reverse transcription: Kit Takara (PrimeScript RT reagent Kit (Perfect Real Time)

And-1 [1] = target: T1, And-1 (Homo sapiens, UniProt O75717); assay: inhibition of And-1 in OV90 CR cells; assay type: cell-based; parameters: endogenous in cells; conditions: inhibition of And-1, OV90 CR cells
T1 sequence (O75717 1-1129): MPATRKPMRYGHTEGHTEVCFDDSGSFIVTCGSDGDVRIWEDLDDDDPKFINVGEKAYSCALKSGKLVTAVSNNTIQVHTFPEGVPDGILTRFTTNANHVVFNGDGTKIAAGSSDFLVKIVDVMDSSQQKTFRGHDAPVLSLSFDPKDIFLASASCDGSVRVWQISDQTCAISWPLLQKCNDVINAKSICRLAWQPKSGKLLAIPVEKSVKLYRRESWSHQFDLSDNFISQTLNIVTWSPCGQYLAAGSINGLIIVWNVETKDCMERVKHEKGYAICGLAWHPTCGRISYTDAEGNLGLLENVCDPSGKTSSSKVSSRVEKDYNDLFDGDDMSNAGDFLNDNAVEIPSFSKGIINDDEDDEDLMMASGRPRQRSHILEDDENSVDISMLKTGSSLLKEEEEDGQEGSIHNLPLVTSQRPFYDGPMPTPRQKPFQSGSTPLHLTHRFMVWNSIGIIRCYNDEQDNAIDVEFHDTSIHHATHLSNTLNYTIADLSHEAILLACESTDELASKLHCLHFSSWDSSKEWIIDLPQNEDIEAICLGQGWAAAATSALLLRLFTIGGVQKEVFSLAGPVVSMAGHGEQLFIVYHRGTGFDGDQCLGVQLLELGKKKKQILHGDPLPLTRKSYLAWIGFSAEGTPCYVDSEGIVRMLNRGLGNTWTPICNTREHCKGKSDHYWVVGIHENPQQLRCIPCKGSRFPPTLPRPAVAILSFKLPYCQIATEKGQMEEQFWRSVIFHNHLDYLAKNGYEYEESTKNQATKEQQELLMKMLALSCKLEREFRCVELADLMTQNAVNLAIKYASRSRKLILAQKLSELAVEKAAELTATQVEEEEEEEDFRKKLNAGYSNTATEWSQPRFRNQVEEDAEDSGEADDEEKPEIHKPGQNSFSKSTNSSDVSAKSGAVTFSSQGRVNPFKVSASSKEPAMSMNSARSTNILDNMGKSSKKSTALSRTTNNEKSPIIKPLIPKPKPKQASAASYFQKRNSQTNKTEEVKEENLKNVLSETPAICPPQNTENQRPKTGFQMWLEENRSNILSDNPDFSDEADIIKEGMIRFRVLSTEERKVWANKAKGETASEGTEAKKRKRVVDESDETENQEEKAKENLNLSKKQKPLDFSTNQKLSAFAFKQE

And-1 [2] = target: T1, And-1; assay: Western blot detection of And-1 protein expression in A549 cells; assay type: cell-based; parameters: endogenous in cells; host or cells: A549; conditions: A549 cell line, 5 μM, 24 hours
Protocol: Select the A549 cells in good growth condition and inoculate them in a 60 mm petri dish at a density of 500,000. After culturing in a constant temperature incubator at 37° C. and 5% CO2 for 24 hours, add different compounds of the same concentration (5 μM) and continue culturing for 24 hours before collecting Cells were subjected to Western blotting experiments to compare with untreated cells to detect the inhibitory effect of each compound on the expression of And-1 protein.

And-1 [3] = target: T1, And-1; assay: inhibition of And-1 in IGROV1 CR cells; assay type: cell-based; parameters: endogenous in cells; host or cells: IGROV1 CR; conditions: inhibition of And-1, IGROV1 CR cells
AN3CA cells [4] = assay: cell clonogenic assay in AN3CA cells; assay type: cell-based, human; conditions: 5 μM
Protocol: • 1. The experimental steps are as follows: • 1.1 AN3CA cell recovery and culture (MEM medium, 10% serum, 1% double antibody); • 1.2 Passages (1:2 ratio passage); • 1.3 When the cell state is good, laying 6-hole plates, 500/hole, and culturing overnight; • 1.4 Adding medicine: […], 2 mL/well; • 1.5 Adding medicine in a liquid changing mode every two days; • 1.6 Frequent observation. The culture was terminated when macroscopic colonies appeared in the culture dish. The supernatant was discarded, carefully rinsed 2 times with PBS and air dried. Cells were fixed with 5 mL of 4% paraformaldehyde for 30 minutes or with methanol for 10 minutes. And (3) removing the stationary liquid after air drying, adding a proper amount of GIMSA, dyeing for 10-30 minutes by using the dyeing liquid, then slowly washing away the dyeing liquid by using running water, and air drying. • 1.7 Plates were inverted and overlaid with a piece of transparent film with grid and clones were counted either directly with the naked eye or with a microscope (low power) for clones larger than 10 cells. And finally calculating the clone formation rate. • 1.8 Percent colony formation rate (number of clones/number of inoculated cells)×100%

AN3CA cells [5] = assay: cell proliferation assay (MTS) in AN3CA cells; assay type: cell-based, human; conditions: 10 μM, 48 h
Protocol: • 1. The experimental steps are as follows: • 1.1 AN3CA cell recovery and culture (MEM medium, 10% serum, 1% double antibody); • 1.2 Passages (passage at a ratio of 1:2); • 1.3 Place 96-well plate when the cell status is good, 1×10^4 Well, culture overnight; • culture medium with 10% defatted serum • 1.4 Adding medicine: diluting the final concentration of the drug with a culture medium to 10 μM, and treating for 48 h at 100 μL/well; • culture medium with 10% defatted serum • 1.5 Addition of 2 μL MTS/well, care taken to prevent bubble formation, 490 nm data after 1-4 h

Structure (SMILES): OB1OCc2cc(/C=C/c3ccc(Cl)c(Cl)c3)ccc21 [III, (E)-5-(3,4-dichlorostyryl)benzo[c][1,2]oxaborol-1(3H)-ol]
- Relative mRNA expression of SCD-1 (SREBP target gene SCD-1): 0.64
- inhibitory effect on Srebp (SREBP target gene SCD-1; human endometrial cancer AN3CA cells): high inhibitory effect
- IC50 (And-1 [1]): 13.3 µM
- expression of And-1 protein (Western blot) (And-1 [2]): significantly inhibit
- IC50 (And-1 [3]): 7.8 µM and 7.83 µM

Structure (SMILES): OB1OCc2cc(/C=C/c3cc(Cl)cc(Cl)c3)ccc21 [XIV, (E)-5-(3,5-dichlorostyryl)benzo[c][1,2]oxaborol-1(3H)-ol]
- Relative mRNA expression of SCD-1 (SREBP target gene SCD-1): 0.46
- inhibition of clonogenic rate (AN3CA cells [4]): comparable to that of 10 μM BF 175
- inhibition of AN3CA cell proliferation (in words) (AN3CA cells [5]): different degrees of inhibition
- IC50 (And-1 [1]): 29.9 µM
- IC50 (And-1 [3]): 25.7 µM
